Tested on: primary CLL samples (CD19+ and CD5+ cells)
Assay: High-throughput dynamic BH3 profiling (HT-DBP): drug-induced apoptotic priming (delta priming), cytochrome c release after BH3 peptide
Type: cell-based, human
Settings: for drug-induced apoptotic priming: across CLL subtypes, 65 primary CLL samples, 20 hours drug
Experimental: By “delta priming” is meant the difference in priming of a cell for apoptosis measured in the presence of an agent for treating chronic lymphocytic leukemia relative to priming of the cell in the presence of an inert carrier. In embodiments, the inert carrier is DMSO.
Dynamic BH3 Profiling Dynamic BH3 profiling (DBP) is a drug screening assay that measures the relative priming of cells in a biological sample for cell death by apoptosis in the presence of a specific compound and/or a pro-apoptotic peptide. By “Dynamic BH3 profiling” is meant measuring drug-induced changes in mitochondrial apoptotic priming. Mitochondrial apoptotic priming is a measure of how close to the apoptotic threshold a cell is. A highly primed cell has relatively less anti-apoptotic binding site availability and is closer to the apoptotic threshold than a poorly primed cell, which has more anti-apoptotic availability to buffer an apoptotic assault and is further from the apoptotic threshold. BH3 peptides derived from the BH3 domain of pro-apoptotic BH3-only proteins provoke a response from viable mitochondria. Cytochrome c released from the mitochondria after a short incubation with BH3 peptide is used as a surrogate for priming. In general, the more sensitive a mitochondrion is to a BH3 peptide, the more primed it is. A drug treatment that enhances priming will cause mitochondria to undergo MOMP more easily when incubated with a fixed concentration of a promiscuously binding BH3 peptide, such as BIM BH3 peptide, compared to control-treated cells. See, for example, Potter, D. S. & Letai, A. To prime, or not to prime: that is the question. Cold Spring Harb. Symp. Quant. Biol. 81, 131-140 (2016); Montero, J. et al. Drug-induced death signaling strategy rapidly predicts cancer response to chemotherapy. Cell 160, 977-989 (2015); Daniels, V. W. et al. Metabolic perturbations sensitize triple-negative breast cancers to apoptosis induced by BH3 mimetics. Sci.
Dynamic BH3 profiling and peptides for use therein are described, for example, in Certo, et al., “Mitochondria primed by death signals determine cellular addiction to antiapoptotic BCL-2 family members,” Cancer Cell, 9:351-365 (2006); and in Foight, et al. “Designed BH3 Peptides with High Affinity and Specificity for Targeting Mcl-1 in Cells,” ACS Chemical Biology, 9:1962-1968 (2014), the disclosures of which are incorporated herein by reference in their entireties for all purposes. The DBP assay enables one to compare the response of a patient tumor sample to a specific drug relative to other drugs and relative to an inert control (e.g., DMSO).
To address the challenge of selecting a proper treatment for a chronic lymphocytic leukemia, experiments were undertaken to optimize high-throughput dynamic BH3 profiling (HT-DBP) for evaluation of the drug sensitivities of CLL samples (FIGS. 1, 13, 5A, 5B, 6A, 6B, and 7A-7C).

[1] = peptide BIM 0.01 uM, feature EC-m2
[2] = peptide PUMA 1 uM, feature i-CLL
[3] = peptide BAD 0.3 uM, feature EC-i
[4] = peptide BAD 0.3 uM, feature IGLV321_R110
[5] = peptide BAD 0.3 uM, feature RPS15
[6] = peptide BAD 0.3 uM, feature loss_6q
[7] = peptide MS1 2.5 uM, feature IGLV321_R110
[8] = peptide MS1 2.5 uM, feature NOTCH1
[9] = peptide MS1 2.5 uM, feature RPS15
[10] = peptide MS1 2.5 uM, feature loss_6q
[11] = peptide MS1 2.5 uM, feature loss_13q14.13
[12] = peptide MS1 2.5 uM, feature BIRC3
[13] = peptide MS1 2.5 uM, feature ITIH2
[14] = peptide MS1 2.5 uM, feature loss_9p21.3
[15] = peptide MS1 2.5 uM, feature loss_17q11.2

CC[C@H](Nc1ncnc2nc[nH]c12)c1nc2cccc(F)c2c(=O)n1-c1ccccc1 [Idelalisib, idelalisib]
Sensitive: direction (peptide MS1 2.5 uM, feature tri_12) | direction (peptide PUMA 1 uM, feature EC-m4) | direction (peptide PUMA 1 uM, feature KMT2D)
Resistant: direction (peptide PUMA 1 uM, feature DICER1) | direction (peptide PUMA 1 uM, feature MED1)
high priming: drug-induced apoptotic priming

c1cn2cc(-c3ccc4cn[nH]c4c3)nc(Nc3ccc(N4CCOCC4)cc3)c2n1 [Entospletinib]
Sensitive: direction (Feature tri_12) | direction (peptide BAD 0.3 uM, feature loss_17p13.1) | direction (peptide BAD 0.3 uM, feature loss_17q23.1) | direction (peptide BAD 0.3 uM, feature loss_19p13.11) | direction (peptide BIM 0.01 uM, feature tri_12) | direction (peptide MS1 2.5 uM, feature loss_19p13.11) | direction (peptide PUMA 1 uM, feature loss_19p13.11)

CC(C)C[C@H](NC(=O)[C@H](CCc1ccccc1)NC(=O)CN1CCOCC1)C(=O)N[C@@H](Cc1ccccc1)C(=O)N[C@@H](CC(C)C)C(=O)[C@@]1(C)CO1 [Carfilzomib]
Sensitive: direction [1] | direction (peptide BIM 0.01 uM, feature loss_17q23.1) | direction (peptide PUMA 1 uM, feature MYD88) | direction (peptide PUMA 1 uM, feature gain_7q22.1) | direction [2] | direction (peptide PUMA 1 uM, feature loss_3p21.31) | direction (peptide PUMA 1 uM, feature loss_14q32.12)

C[C@@H](Oc1cc(-c2cnn(C3CCNCC3)c2)cnc1N)c1c(Cl)ccc(F)c1Cl [Crizotinib]
Resistant: direction [3] | direction [4] | direction (peptide BAD 0.3 uM, feature NOTCH1) | direction [5] | direction [6] | direction (peptide BIM 0.01 uM, feature EC-i) | direction (peptide BIM 0.01 uM, feature IGLV321_R110) | direction (peptide BIM 0.01 uM, feature NOTCHI) | direction (peptide BIM 0.01 uM, feature RPS15) | direction (peptide BIM 0.01 uM, feature loss_6q) | direction [7] | direction [8] | direction (peptide MS1 2.5 uM, feature RFX7) | direction [9] | direction (peptide MS1 2.5 uM, feature ZMYM3) | direction [10] | direction (peptide MS1 2.5 uM, feature priortrt_Post) | direction (peptide PUMA 1 uM, feature EC-i) | direction (peptide PUMA 1 uM, feature IGLV321_R110) | direction (peptide PUMA 1 uM, feature NOTCH1) | direction (peptide PUMA 1 uM, feature RPS15) | direction (peptide PUMA 1 uM, feature loss_6q)
Sensitive: direction (peptide BAD 0.3 uM, feature EC-u1) | direction (peptide BAD 0.3 uM, feature RFX7) | direction (peptide BAD 0.3 uM, feature ZMYM3) | direction (peptide BAD 0.3 uM, feature loss_11q22.3) | direction (peptide BAD 0.3 uM, feature n-CLL) | direction (peptide BIM 0.01 uM, feature SF3B1)

CCS(=O)(=O)N1CCN(c2ccc(Nc3ncc(C(N)=O)c(NC4CC4)n3)cc2)CC1 [Cerdulatinib]
Sensitive: direction (Feature loss_13q14.13) | direction (Feature loss_13q14.3) | direction (peptide BAD 0.3 uM, feature loss_13q14.13) | direction (peptide BAD 0.3 uM, feature loss_13q14.3) | direction (peptide BIM 0.01 uM, feature KMT2D) | direction (peptide BIM 0.01 uM, feature loss_13q14.13) | direction (peptide BIM 0.01 uM, feature loss_13q14.3) | direction [11] | direction (peptide PUMA 1 uM, feature loss_13q14.13) | direction (peptide PUMA 1 uM, feature loss_13q14.3)
high priming: drug-induced apoptotic priming

fludarabine
Sensitive: direction [12] | direction [13] | direction [14] | direction [15]
0.4431: dprim_pearson_corr [12] | dprim_pearson_corr [14] | dprim_pearson_corr [15]
significant response: response (apoptotic priming) (IGHV mutated CLLs, FDR<0.1, t-test)
0.5036: dprim_pearson_corr [13]

CCn1c(-c2nonc2N)nc2c(C#CC(C)(C)O)ncc(OC[C@H]3CCCNC3)c21 [GSK690693]
Resistant: direction (peptide BAD 0.3 uM, feature POT1) | direction (peptide BAD 0.3 uM, feature loss_3p13) | direction (peptide MS1 2.5 uM, feature EC-m3)
Sensitive: direction (Feature i-CLL) | direction (peptide BAD 0.3 uM, feature EC-o) | direction (peptide BIM 0.01 uM, feature i-CLL) | direction (peptide MS1 2.5 uM, feature EC-o) | direction (peptide MS1 2.5 uM, feature i-CLL) | direction [11] | direction (peptide PUMA 1 uM, feature BIRC3) | direction (peptide PUMA 1 uM, feature ITIH2) | direction [2] | direction (peptide PUMA 1 uM, feature loss_9p21.3) | direction (peptide PUMA 1 uM, feature loss_17q11.2)

NC1(c2ccc(-c3nc4ccn5c(=O)[nH]nc5c4cc3-c3ccccc3)cc2)CCC1 [MK-2206]
Resistant: direction (Feature priortrt_Post) | direction [3] | direction [4] | direction [5] | direction [6] | direction (peptide BAD 0.3 uM, feature priortrt_Post) | direction (peptide MS1 2.5 uM, feature EC-i) | direction [7] | direction [9] | direction [10] | direction (peptide PUMA 1 uM, feature priortrt_Post)
Sensitive: direction (peptide BIM 0.01 uM, feature BIRC3) | direction (peptide BIM 0.01 uM, feature ITIH2) | direction (peptide BIM 0.01 uM, feature loss_9p21.3) | direction (peptide BIM 0.01 uM, feature loss_17q11.2)

O=C(CCCCCCC(=O)Nc1ccccc1)NO [Vorinostat]
Sensitive: direction (Feature EC-m2) | direction [1] | direction (peptide PUMA 1 uM, feature EC-m2) | direction (peptide PUMA 1 uM, feature loss_6q21)
Resistant: direction (Feature EC-m4) | direction (peptide BIM 0.01 uM, feature EC-m4) | direction [2]

COc1ccc(-c2ccc3c(N4CCOC[C@@H]4C)nc(N4CCOC[C@@H]4C)nc3n2)cc1CO [AZD8055]
Resistant: direction [7] | direction [8] | direction [9] | direction (peptide MS1 2.5 uM, feature loss_1p36.11) | direction (peptide MS1 2.5 uM, feature loss_3p13) | direction [10] | direction (peptide MS1 2.5 uM, feature loss_18q21.2)
